From ChEMBL document CHEMBL1154751, “Evaluation of di-sansalvamide A derivatives: synthesis, structure-activity relationship, and mechanism of action” (J Med Chem, 2009)

Columns and labels:
[1] = Growth inhibition of human PL45 cells after 24 hrs by [3H]thymidine uptake assay; format: functional, cell-based
[2] = Growth inhibition of human PL45 cells at 1 nM after 24 hrs by [3H]thymidine uptake assay; format: functional; conditions: read-out: GI
[3] = Growth inhibition of human PL45 cells at 62.5 nM after 24 hrs by [3H]thymidine uptake assay; format: functional; conditions: read-out: GI
[4] = Growth inhibition of human PL45 cells at 125 nM after 24 hrs by [3H]thymidine uptake assay; format: functional; conditions: read-out: GI
[5] = Growth inhibition of human PL45 cells at 250 nM after 24 hrs by [3H]thymidine uptake assay; format: functional; conditions: read-out: GI
[6] = Growth inhibition of human PL45 cells at 500 nM after 24 hrs by [3H]thymidine uptake assay; format: functional; conditions: read-out: GI
[7] = Growth inhibition of human PL45 cells at 1000 nM after 24 hrs by [3H]thymidine uptake assay; format: functional; conditions: read-out: GI
HCT-116 [8] = assay: Growth inhibition of human HCT116 cells after 24 hrs by [3H]thymidine uptake assay; format: functional, cell-based
HCT-116 [9] = assay: Growth inhibition of human HCT116 cells at 10 nM after 24 hrs by [3H]thymidine uptake assay; format: functional; conditions: read-out: GI
HCT-116 [10] = assay: Growth inhibition of human HCT116 cells at 20 nM after 24 hrs by [3H]thymidine uptake assay; format: functional; conditions: read-out: GI
HCT-116 [11] = assay: Growth inhibition of human HCT116 cells at 50 nM after 24 hrs by [3H]thymidine uptake assay; format: functional; conditions: read-out: GI
HCT-116 [12] = assay: Growth inhibition of human HCT116 cells at 100 nM after 24 hrs by [3H]thymidine uptake assay; format: functional; conditions: read-out: GI
HCT-116 [13] = assay: Growth inhibition of human HCT116 cells at 200 nM after 24 hrs by [3H]thymidine uptake assay; format: functional; conditions: read-out: GI
[14] = Growth inhibition of human WS1 cells at 1 nM after 24 hrs by [3H]thymidine uptake assay; format: functional; conditions: read-out: GI
[15] = Growth inhibition of human WS1 cells at 62.5 nM after 24 hrs by [3H]thymidine uptake assay; format: functional; conditions: read-out: GI
[16] = Growth inhibition of human WS1 cells at 125 nM after 24 hrs by [3H]thymidine uptake assay; format: functional; conditions: read-out: GI
[17] = Growth inhibition of human WS1 cells at 250 nM after 24 hrs by [3H]thymidine uptake assay; format: functional; conditions: read-out: GI
[18] = Growth inhibition of human WS1 cells at 500 nM after 24 hrs by [3H]thymidine uptake assay; format: functional; conditions: read-out: GI
[19] = Growth inhibition of human WS1 cells at 1000 nM after 24 hrs by [3H]thymidine uptake assay; format: functional; conditions: read-out: GI
[20] = Growth inhibition of human WS1 cells after 24 hrs by [3H]thymidine uptake assay; format: functional, cell-based

IC50 (HCT-116 [8]): 56.5 nM
Structure (SMILES): C=CCNC1=C2C[C@@H](C)C[C@H](OC)[C@H](O)[C@@H](C)/C=C(\C)[C@H](OC(N)=O)[C@@H](OC)/C=C\C=C(/C)C(=O)NC(=CC1=O)C2=O [TANESPIMYCIN]
IC50 [1]: 7.7 nM | inhibition of growth at 0.001 µM [2]: 11.4% | inhibition of growth at 0.0625 µM [3]: 98% | inhibition of growth at 0.125 µM [4]: 99% | inhibition of growth at 0.25 µM [5]: 99% | inhibition of growth at 0.5 µM [6]: 99% | inhibition of growth at 1 µM [7]: 99% | inhibition of growth at 0.01 µM (HCT-116 [9]): 0% | inhibition of growth at 0.02 µM (HCT-116 [10]): 12% | inhibition of growth at 0.05 µM (HCT-116 [11]): 54% | inhibition of growth at 0.1 µM (HCT-116 [12]): 72% | inhibition of growth at 0.2 µM (HCT-116 [13]): 79% | inhibition of growth at 0.001 µM [14]: 18% | inhibition of growth at 0.0625 µM [15]: 51.7% | inhibition of growth at 0.125 µM [16]: 73.2% | inhibition of growth at 0.25 µM [17]: 66% | inhibition of growth at 0.5 µM [18]: 76.3% | inhibition of growth at 1 µM [19]: 77.8% | IC50 [20]: 31.8 nM
